Entries after “also recorded” stand apart in the source; their conditions may differ. Like-named read-outs stand apart in the source and are kept apart here. Marks after values point to notes of the source that are not given here.
Experiments:
Beagle dogs [1] = tested on: Beagle dogs
[2] = Anesthetic effects in rats, bolus IV (LORR model of general anesthesia); type: in vivo, rat; settings: male, Sprague-Dawley, rat, in vivo, read-out: MTD (maximum tolerated dose)
Experimental: (§1) Also measured was minimum dose to achieve LORR and maximum tolerated dose (MTD).
(§2) The ranges of doses studied were 2, 3, 4, 7, 14 and 21 mg/kg for Compound 1 and 3.5, 4.0, 7.0 and 14.0 mg/kg for […].

male Sprague-Dawley rats = assay: as above; type: in vivo, rat
Experimental: as §1, §2

Beagle dogs [3] = assay: Hemodynamic effects (blood pressure) in beagle dogs, bolus IV; type: in vivo, dog; settings: for MAP % change from baseline: 4 min after bolus IV
Experimental: The study was a crossover design. […] The MTD was defined as the dose that reduced mean arterial blood pressure (MAP) by 50% or to less than 50 millimeters of mercury (mmHg or mm Hg). All animals received supplemental oxygen and, if needed, ventilatory support after 4 min of apnea.
Hemodynamic data, such as mean arterial pressure (MAP), were recorded at baseline, 1, 2, 4, 8, 15, 20 and 30 min. Compound 1 was administered at 5, 10, 15 and 30 mg/kg to 6, 4, 3 and 3 dogs respectively. […] Data were analyzed with a 2-way ANOVA followed by t-test with Bonferroni correction for multiple comparisons.

Male descented ferrets = assay: Anti-emetic activity in ferrets (morphine sulfate-induced emesis); type: in vivo, ferret; settings: 6 ferrets, morphine sulfate 0.5 mg/kg subcutaneously alone, 45 min observation
Experimental: Male descented ferrets weighing 1.0-1.5 kg with vascular access ports in the jugular vein were housed on a 12/12-hour light/dark cycle under controlled temperature, with food and water provided ad libitum. On each study day, food was presented to ferrets one hour prior to dosing. Immediately prior to dosing, food and water were removed. A 1% Compound 1 formulation, prepared as described in Example 2 and formulated in accordance with Example 5, or […] was administered by IV infusion to the ferrets; see Wynn R L et al, 1993, Eur J Pharmacol 241, 42 re […] administration in ferrets. After administration of Compound 1 or […], animals were placed in clean, transparent cages (with lids) and left unrestrained for a 45-min observation period by an observer blinded to the specific treatment administered.
Episodes of retching and/or vomiting were considered separate episodes when the interval between retches and/or vomits exceeded 5 sec.
After termination of the infusion, 0.5 mg/kg morphine sulfate was administered subcutaneously and the ferrets were monitored for 45 min as described above. Six additional ferrets were administered subcutaneously 0.5 mg/kg morphine sulfate only.

[4] = tested on: commercial farm-bred swine; assay: Hemodynamic effects, blood gas and serum chemistry in anesthetized ventilated pigs, IV infusion; type: in vivo, pig; settings: IV infusion, Compound 1 0.6 mg/kg/min vs propofol 0.750 mg/kg/min
Experimental: Anesthesia was induced with isoflurane. Intravascular access was obtained from an ear vein. Each pig was intubated and mechanically ventilated.
ECG was monitored throughout the study. […] Body temperature was maintained at 37° C.
Arterial blood gas samples from pigs infused with Compound 1 were taken and analyzed for blood gas and serum chemistry values.

Male Sprague Dawley rats = assay: Test A. Loss of Righting Reflex Assay; type: in vivo, rat; settings: 7 mg/kg bolus in tail vein, 1% formulation
Experimental: The ability of a compound of the invention to produce a sedative or hypnotic effect can be determined using standard pharmacological models which are well known to the art.
Test A. Loss of Righting Reflex Assay
Male Sprague Dawley rats were restrained in a holder and injection test compounds were injected in the tail vein (based on mg test compound/kg body weight). Following administration, the rats were placed in dorsal recumbent position on a heating blanket. The time to onset for the loss of the Righting Reflex (RR-ability of rat to right itself) was recorded, as was the duration of the loss of the RR.

[5] = Aqueous phase concentration in lipid emulsion (pain on injection surrogate), ultrafiltration + LC/MS/MS; type: physicochemical; settings: aqueous phase of 1% lipid emulsion separated by ultrafiltration
Experimental: The concentration of Compound 1 in the aqueous phase (aqueous phase concentration) of a lipid emulsion formulation was determined.
A one percent (1%) Compound 1 formulation was formulated in accordance with Example 5, Compound 1 being prepared as described in Example 2.

## CC[C@H](C)c1cccc(C(C)C)c1O [(S)-(+)-2-sec-butyl-6-isopropylphenol]
Beagle dogs [1]; dogs, bolus IV, 5 mg/kg
  duration of anesthesia (sleep time): 12 min
Beagle dogs [1]; dogs, bolus IV, 10 mg/kg
  duration of anesthesia (sleep time): 33 min
Beagle dogs [1]; dogs, bolus IV, 15 mg/kg
  duration of anesthesia (sleep time): 50 min
Beagle dogs [1]; dogs, bolus IV, 30 mg/kg
  duration of anesthesia (sleep time): 56 min
[2]
  MTD: 21 mg/kg
Male Sprague-Dawley rats
  HD50 (dose required to cause 50% of the rats to lose righting reflex): 5 mg/kg
  HD7 min (dose required to produce 7 minutes of anesthesia): 6.7 mg/kg
  TI (therapeutic index; ratio of MTD to HD7 min): 3.1
Male Sprague-Dawley rats; 6 rats per dose group, dose as stated
  deaths: One of six rats died when administered 28 mg/kg
Beagle dogs [3]; 10 mg/kg
  MAP % change from baseline: +3%
Beagle dogs [3]; 15 mg/kg
  MAP % change from baseline: +1%
Beagle dogs [3]; 30 mg/kg
  MAP % change from baseline: −33%

## CN1CC[C@]23c4c5ccc(O)c4O[C@H]2[C@@H](O)C=C[C@H]3[C@H]1C5.O=S(=O)(O)O [Morphine sulfate, reference compound]
Male descented ferrets
  episodes of vomiting: 15
  retches: 157

## CC(C)c1cccc(C(C)C)c1O [propofol, 2,6-diisopropylphenol, reference compound]
[4]; FIG. 3
  decrease in MAP, comparison: significantly larger decrease in MAP than Compound 1
[4]; FIG. 4
  lowest HR measured, comparison: significantly lower than the lowest HR measured for Compound 1
Beagle dogs [1]; dog, in vivo, iv, 5 mg/kg
  duration of anesthesia (sleep time): 13 min
Beagle dogs [1]; dog, in vivo, iv, 10 mg/kg
  duration of anesthesia (sleep time): 28 min
Beagle dogs [1]; dog, in vivo, iv, 15 mg/kg
  dogs reaching the MTD (MAP reduced by 50% or to less than 50 mmHg): Two of 3 dogs
  duration of anesthesia (sleep time): 43 min
Beagle dogs [1]; dog, in vivo, iv, 30 mg/kg
  duration of anesthesia (sleep time): 69 min
Male Sprague Dawley rats
  duration of anesthesia (loss of the Righting Reflex): 7.1 min
[2]
  MTD: < 14 mg/kg
Male Sprague-Dawley rats
  TI (therapeutic index; ratio of MTD to HD7 min): <2
Male Sprague-Dawley rats; 6 rats per dose group
  production of LORR by dose: no LORR in 4 of 6 rats tested at 3.5 mg/kg
Beagle dogs [3]; 10 mg/kg
  MAP % change from baseline: −22%
Beagle dogs [3]; 15 mg/kg
  MAP % change from baseline: −32%
Beagle dogs [3]; 30 mg/kg
  MAP % change from baseline: −66%*
Beagle dogs [3]; bolus IV
  effect on MAP, comparison: significantly greater effect on MAP than does Compound 1; also recorded: significantly greater effect on MAP than did (S)-(+)-2-sec-butyl-6-isopropylphenol
[5]
  aqueous phase concentration: 6.28 ± 0.41 µg/mL
